# Measurements published in US10774051B2, “6-membered heterocyclic derivatives and pharmaceutical composition comprising the same” (Shionogi & Co., Ltd., priority 2015, dated 2020).
# Target: human P2X7 receptor (Homo sapiens, UniProt Q99572, R270H/Y155H)
# Assay: Evaluation of human P2X7 receptor inhibitory activity (Yo-Pro uptake, BzATP stimulation, FLIPR TETRA)
# Format: cell-based
# Details: 1321N1 cells stably expressing human P2X7 receptor; BzATP stimulation, Yo-Pro uptake; read-out: IC50 (antagonistic activity for the human P2X7 receptor)
# Outline: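 Yo-Pro dye uptake triggered by BzATP was monitored by FLIPR in human P2X7-transfected 1321N1 cells (SNP variant) in HEPES-buffered HBSS, pH 7.4-7.5. Compound was dispensed 8 min post-stimulation, then signal read for 20 min; IC50 derived logistically from inhibition of the fluorescence range.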
row,Compound,IC50
1,COc1cn(Cc2ccc(F)c(Cl)c2)c(Nc2c(C)cc3oc(C)cc3c2C)nc1=O [Compound I-0833],39 nM
2,Cc1cc(OC(F)F)c(C)cc1Nc1nc(=O)c(F)cn1Cc1cc(F)cc(F)c1 [Compound I-0836],2 nM
3,Cc1ccc(-c2ncco2)cc1Nc1nc(=O)c(F)cn1Cc1ccc(F)c(Cl)c1 [Compound I-0849],3 nM
4,COc1cn(Cc2cc(F)cc(F)c2)c(Nc2ccc3ncsc3c2C)nc1=O [Compound I-0857],26 nM
5,COc1cn(Cc2ccccc2)c(Nc2ccc3nc(C)sc3c2C)nc1=O [Compound I-0858],10 nM
6,COc1cn(Cc2cc(F)cc(F)c2)c(Nc2cc3c(cc2C)OCC3)nc1=O [Compound I-0865],8 nM

# Same assay, conditions: antagonistic activity for the human P2X7 receptor; read-out: IC50
row,Compound,IC50
1,Cc1cc(OC(F)F)c(C)cc1Nc1nc(=O)c(F)cn1Cc1ccc(F)c(Cl)c1 [Compound I-0834],< 10 nM
2,Cc1cc(OC(F)F)c(C)cc1Nc1nc(=O)c(F)cn1Cc1ccc(F)c(F)c1 [Compound I-0835],< 10 nM
3,Cc1cc(OC(F)F)c(C)cc1Nc1nc(=O)c(Cl)cn1Cc1ccc(F)c(Cl)c1 [Compound I-0837],< 10 nM
4,Cc1cc(OC(F)F)c(C)cc1Nc1nc(=O)c(Cl)cn1Cc1ccc(F)c(F)c1 [Compound I-0838],< 10 nM
5,Cc1cc(OC(F)F)c(C)cc1Nc1nc(=O)c(Cl)cn1Cc1cc(F)cc(F)c1 [Compound I-0839],< 10 nM
6,COc1ccc(Nc2nc(=O)c(F)cn2Cc2ccc(F)c(Cl)c2)c(C)c1 [Compound I-0840],< 10 nM
7,COc1ccc(Nc2nc(=O)c(F)cn2Cc2ccc(F)c(F)c2)c(C)c1 [Compound I-0841],< 10 nM
8,COc1ccc(Nc2nc(=O)c(Cl)cn2Cc2ccc(F)c(Cl)c2)c(C)c1 [Compound I-0843],10 to 100 nM
9,COc1ccc(Nc2nc(=O)c(Cl)cn2Cc2ccc(F)c(F)c2)c(C)c1 [Compound I-0844],< 10 nM
10,COc1ccc(Nc2nc(=O)c(Cl)cn2Cc2cc(F)cc(F)c2)c(C)c1 [Compound I-0845],10 to 100 nM
11,COc1ccc(Cl)c(Nc2nc(=O)c(OC)cn2Cc2cc(F)c(F)c(F)c2)c1 [Compound I-0846],< 10 nM
12,COc1ccc(Nc2nc(=O)c(OC)cn2Cc2cc(F)c(F)c(F)c2)c(Cl)c1 [Compound I-0847],< 10 nM
13,COc1cc(Cl)c(Nc2nc(=O)c(OC)cn2Cc2cc(F)c(F)c(F)c2)cc1OC [Compound I-0848],< 10 nM
14,Cc1ccc(-c2ncco2)cc1Nc1nc(=O)c(F)cn1Cc1ccc(F)c(F)c1 [Compound I-0850],< 10 nM
15,Cc1ccc(-c2ncco2)cc1Nc1nc(=O)c(F)cn1Cc1cc(F)cc(F)c1 [Compound I-0851],< 10 nM
16,Cc1ccc(-c2ncco2)cc1Nc1nc(=O)c(Cl)cn1Cc1ccc(F)c(Cl)c1 [Compound I-0852],< 10 nM
17,Cc1ccc(-c2ncco2)cc1Nc1nc(=O)c(Cl)cn1Cc1ccc(F)c(F)c1 [Compound I-0853],< 10 nM
18,Cc1ccc(-c2ncco2)cc1Nc1nc(=O)c(Cl)cn1Cc1cc(F)cc(F)c1 [Compound I-0854],< 10 nM
19,COc1cn(Cc2ccccc2)c(Nc2ccc3ncsc3c2C)nc1=O [Compound I-0855],10 to 100 nM
20,COc1cn(Cc2ccc(F)c(Cl)c2)c(Nc2ccc3ncsc3c2C)nc1=O [Compound I-0856],10 to 100 nM
21,COc1cn(Cc2ccc(F)c(Cl)c2)c(Nc2ccc3nc(C)sc3c2C)nc1=O [Compound I-0859],10 to 100 nM
22,COc1cn(Cc2cc(F)cc(F)c2)c(Nc2ccc3nc(C)sc3c2C)nc1=O [Compound I-0860],10 to 100 nM
23,Cc1ccc(-c2cscn2)cc1Nc1nc(=O)c(F)cn1Cc1ccc(F)c(F)c1 [Compound I-0861],< 10 nM
24,CCOc1ccc(C)c(Nc2nc(=O)c(OC)cn2Cc2cc(F)c(F)c(F)c2)c1 [Compound I-0862],< 10 nM
25,COc1cc(Nc2nc(=O)c(OC)cn2Cc2cc(F)c(F)c(F)c2)c(C)cc1F [Compound I-0863],< 10 nM
26,COc1cn(Cc2ccc(F)c(Cl)c2)c(Nc2cc3c(cc2C)OCC3)nc1=O [Compound I-0864],< 10 nM
